This is an account of results in ChEMBL document CHEMBL4334480, “Anti-inflammatory Ellagitannins from Cleidion brevipetiolatum for the Treatment of Rheumatoid Arthritis” (J Nat Prod, 2019).

Each structure is given as a SMILES string. Calls of active or inactive are those of the source. The calls are words filed in the database; no cut-off is given here. Where only a bound is given, the exact number is not on record here.

The test system of series [1] is RAW264.7. As to the kind of experiment: Antiinflammatory activity against mouse RAW264.7 cells assessed as reduction in LPS-induced iNOS protein expression compound preincubated for 2 hrs followed by LPS stimulation after 22 hrs by Western blot analysis. It counts as functional, cell-based. Background: In western blotting, separated proteins are transferred to a membrane and probed.

The test system of series [2] is Mus musculus. Kind of series: Antiinflammatory activity against carrageenan-induced paw oedema in ICR mouse assessed as reduction in NO level in serum at 50 mg/kg, po administered 30 mins prior to carrageenan challenge after 5 hrs post carrageenan. In kind it is functional, organism-based. For orientation: In the carrageenan paw model, swelling and tenderness develop within hours.

The test system of series [3] is Mus musculus. Kind of series: Antiinflammatory activity against carrageenan-induced paw edema in ICR mouse assessed as inhibition of paw edema at 50 mg/kg, po administered 30 mins prior to carrageenan challenge measured at 2 hrs post carrageenan challenge relative to control. It counts as functional.
Series [4] relates to RAW264.7. Kind of series: Antiinflammatory activity against mouse RAW264.7 cells assessed as reduction in LPS-induced Cox2 mRNA expression compound preincubated for 2 hrs followed by LPS stimulation after 22 hrs by RT-PCR analysis. In kind it is functional, cell-based.
The nature of series [5]: Toxicity in DBA/1J mouse assessed as effect on body weight at 50 mg/kg, po. It counts as organism-based. The note with it: in vivo.
Series [6] concerns RAW264.7. Kind of series: Antiinflammatory activity against mouse RAW264.7 cells assessed as reduction in LPS-induced iNOS mRNA expression compound preincubated for 2 hrs followed by LPS stimulation after 22 hrs by RT-PCR analysis. It counts as functional, cell-based.
Series [7] relates to Mus musculus. As to the kind of experiment: Antiinflammatory activity against carrageenan-induced paw oedema in ICR mouse assessed as inhibition of paw edema at 50 mg/kg, po administered 30 mins prior to carrageenan challenge after 5 hrs post carrageenan challenge. In kind it is functional, organism-based.
Series [8] has as its target Transcription factor p65 (Mus musculus) (UniProt Q04207). As to the kind of experiment: Inhibition of LPS-induced NFkappaB p65 nuclear translocation in mouse RAW264.7 cells at 5 to 50 uM preincubated for 2 hrs followed by LPS-stimulation after 22 hrs by Western blot analysis. In kind it is cell-based.
For series [9], the system named is RAW264.7. Kind of series: Anti-inflammatory activity in mouse RAW264.7 cells assessed as inhibition of LPS-induced nitric oxide production preincubated for 2 hrs followed by LPS stimulation and measured after 24 hrs by Griess assay. In kind it is functional, cell-based. In general terms: Nitrite, measured by Griess reagent, commonly stands in for NO production.

The subject of series [10] is RAW264.7. As to the kind of experiment: Antiinflammatory activity against mouse RAW264.7 cells assessed as effect on LPS-induced TNF-alpha mRNA expression at 5 to 50 uM preincubated for 2 hrs followed by LPS stimulation after 22 hrs by RT-PCR analysis. In kind it is functional, cell-based.
Series [11] deals with T1, NF-kappa-B inhibitor alpha (Mus musculus) (UniProt Q9Z1E3).
T1 sequence (whole entry): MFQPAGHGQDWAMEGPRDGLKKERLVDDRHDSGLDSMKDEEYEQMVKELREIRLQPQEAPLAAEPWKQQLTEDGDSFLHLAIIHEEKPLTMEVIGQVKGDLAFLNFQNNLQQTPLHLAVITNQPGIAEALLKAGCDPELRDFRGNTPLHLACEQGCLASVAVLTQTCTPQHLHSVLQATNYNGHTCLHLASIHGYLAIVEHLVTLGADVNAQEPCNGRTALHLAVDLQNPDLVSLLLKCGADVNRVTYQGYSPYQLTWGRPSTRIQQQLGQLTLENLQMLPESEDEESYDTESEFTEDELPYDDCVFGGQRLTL
Kind of series: Inhibition of LPS-induced IKBalpha phosphorylation mouse RAW264.7 cells at 5 to 50 uM preincubated for 2 hrs followed by LPS-stimulation after 22 hrs by Western blot analysis. In kind it is cell-based.

A short description of series [12]: Toxicity in DBA/1J mouse assessed as effect on behavioral changes at 50 mg/kg, po. The settings on record: in vivo. In kind it is organism-based.
The subject of series [13] is RAW264.7. Kind of series: Cytotoxicity against mouse RAW264.7 cells after 24 hrs by MTT assay. The note with it: raw264.7, 24 h. It counts as cell-based.
For series [14], the system named is Mus musculus. As to the kind of experiment: Antiarthritic activity in collagen-induced rheumatoid arthritis DBA/1J mouse model assessed as reduction in forelimb swelling at 50 mg/kg, po. It counts as functional, organism-based.
Series [15] deals with MAP kinase p38 (Mus musculus) (UniProt P47811+O08911+Q9WUI1+Q9Z1B7). Kind of series: Inhibition of LPS-induced P38 phosphorylation in mouse RAW264.7 cells at 5 to 50 uM preincubated for 2 hrs followed by LPS-stimulation after 22 hrs by Western blot analysis. In kind it is cell-based.
Series [16] deals with Mus musculus. Kind of series: Antiarthritic activity in collagen-induced rheumatoid arthritis DBA/1J mouse model at 50 mg/kg, po after 22 days. In kind it is functional, organism-based.
Series [17] has as its system RAW264.7. As to the kind of experiment: Inhibition of LPS-induced JNK phosphorylation in mouse RAW264.7 cells at 5 to 50 uM preincubated for 2 hrs followed by LPS-stimulation after 22 hrs by Western blot analysis. It counts as cell-based.
Series [18] relates to RAW264.7. As to the kind of experiment: Antiinflammatory activity against mouse RAW264.7 cells assessed as reduction in LPS-induced Cox2 protein expression compound preincubated for 2 hrs followed by LPS stimulation after 22 hrs by Western blot analysis. It counts as functional, cell-based.
Series [19] concerns RAW264.7. Kind of series: Antiinflammatory activity against mouse RAW264.7 cells assessed as reduction in LPS-induced IL-1beta mRNA expression compound preincubated for 2 hrs followed by LPS stimulation after 22 hrs by RT-PCR analysis. In kind it is functional, cell-based.
Series [20] relates to RAW264.7. As to the kind of experiment: Inhibition of LPS-induced ERK phosphorylation in mouse RAW264.7 cells at 5 to 50 uM preincubated for 2 hrs followed by LPS-stimulation after 22 hrs by Western blot analysis. In kind it is cell-based.
Series [21] relates to Mus musculus. As to the kind of experiment: Antiarthritic activity in collagen-induced rheumatoid arthritis DBA/1J mouse model assessed as reduction in hindlimb swelling at 50 mg/kg, po. It counts as functional, organism-based.
Series [22] deals with Mus musculus. Kind of series: Antiinflammatory activity against carrageenan-induced paw oedema in ICR mouse assessed as inhibition of paw edema at 20 mg/kg, po administered 30 mins prior to carrageenan challenge after 5 hrs post carrageenan challenge. It counts as functional, organism-based.
Series [23] relates to Mus musculus. Kind of series: Antiinflammatory activity against carrageenan-induced paw oedema in ICR mouse assessed as inhibition of paw edema at 20 mg/kg, po administered 30 mins prior to carrageenan challenge measured at 2 hrs post carrageenan challenge relative to control. In kind it is functional.
The subject of series [24] is Mus musculus. Kind of series: Antiinflammatory activity against carrageenan-induced paw oedema in ICR mouse assessed as reduction in NO level in serum at 20 mg/kg, po administered 30 mins prior to carrageenan challenge after 5 hrs post carrageenan. In kind it is functional, organism-based.

Chain of Transcription factor p65 (Mus musculus) (Q04207 whole entry): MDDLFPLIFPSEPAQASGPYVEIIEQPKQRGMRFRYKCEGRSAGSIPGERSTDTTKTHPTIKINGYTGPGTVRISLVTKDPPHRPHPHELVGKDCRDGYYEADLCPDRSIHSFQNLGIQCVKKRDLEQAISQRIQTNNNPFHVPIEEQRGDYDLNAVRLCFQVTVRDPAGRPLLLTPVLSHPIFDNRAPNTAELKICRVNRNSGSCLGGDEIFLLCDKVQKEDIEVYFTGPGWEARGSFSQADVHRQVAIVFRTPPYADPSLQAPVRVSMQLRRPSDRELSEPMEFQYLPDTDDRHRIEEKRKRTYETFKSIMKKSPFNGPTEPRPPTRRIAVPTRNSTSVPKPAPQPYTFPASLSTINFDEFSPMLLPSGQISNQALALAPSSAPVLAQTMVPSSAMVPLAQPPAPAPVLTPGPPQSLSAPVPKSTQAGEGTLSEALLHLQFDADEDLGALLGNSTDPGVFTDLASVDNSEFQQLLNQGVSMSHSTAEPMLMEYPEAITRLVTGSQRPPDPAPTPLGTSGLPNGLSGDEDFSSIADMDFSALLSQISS

On to `C=CCc1ccc(O[C@@H]2O[C@H](CO[C@@H]3O[C@@H](C)[C@@H]4OC(=O)c5cc(O)c(O)c(O)c5-c5c(cc(O)c(O)c5O)C(=O)O[C@H]4[C@H]3O)[C@H]3OC(=O)c4cc(O)c(O)c(O)c4-c4c(cc(O)c(O)c4O)C(=O)O[C@@H]3[C@H]2O)cc1`, for which the Activity result was “Dose-dependent effect” with RAW264.7 [1]; “Dose-dependent effect” with RAW264.7 [4]; “Non-Toxic” in [5]; “Dose-dependent effect” in the series on RAW264.7 [6]; “Non-Toxic” in series [12]; “Non-Toxic” in the series on RAW264.7 [13]. In addition, the Activity result with RAW264.7 [18] and in the series on RAW264.7 [19] was “Dose-dependent effect” each time. For the same compound, the result in the series with Mus musculus [2], with Mus musculus [14], in the series with Mus musculus [16] and in the series on Mus musculus [21] was Active. Moreover, in the series with Mus musculus [3], the inhibition in vivo (commonly the percentage by which the read-out fell short of the control) at 50 mg/kg was 26.9%. Moreover, the inhibition result (with Mus musculus [7]; in series [8]; in series [11]) was “Active” in each case. The half-maximal inhibitory concentration (IC50) (as a rule, the concentration that inhibits the measured activity by half) in the series on RAW264.7 [9] came to 1.9 µM. Further, the result in the series on RAW264.7 [10] was inactive. The inhibition entry (in series [15]; with RAW264.7 [17]; in the series with RAW264.7 [20]) was “inactive” throughout.

In the case of `C/C=C/c1ccc(O[C@@H]2O[C@H](CO)[C@@H](O)[C@H](O)[C@H]2O)c(O)c1`, the IC50 with RAW264.7 [9] was found to be 29.2 µM. For the same compound, in the series on RAW264.7 [13], the Activity result is “Non-Toxic”.

As for `C/C=C/c1ccc(O[C@@H]2O[C@H](CO[C@@H]3O[C@@H](C)[C@@H]4OC(=O)c5cc(O)c(O)c(O)c5-c5c(cc(O)c(O)c5O)C(=O)O[C@H]4[C@H]3O)[C@H]3OC(=O)c4cc(O)c(O)c(O)c4-c4c(cc(O)c(O)c4O)C(=O)O[C@@H]3[C@H]2O)cc1`, the IC50 with RAW264.7 [9] was 3.6 µM. In addition, in the series with RAW264.7 [13], the Activity entry is on record as “Non-Toxic”.

On to `C=CCc1ccc(O[C@@H]2O[C@H](CO)[C@H]3OC(=O)c4cc(O)c(O)c(O)c4-c4c(cc(O)c(O)c4O)C(=O)O[C@@H]3[C@H]2O)cc1`, for which the IC50 with RAW264.7 [9] turned out to be 4.3 µM. The Activity result in the series with RAW264.7 [13] was “Non-Toxic”.

Turning to `O=C(O)c1cc(O)c(O)c(O)c1` [GALLIC ACID], the IC50 in the series with RAW264.7 [9] was over 50 µM. In the series on RAW264.7 [13], the Activity result is reported as “Non-Toxic”.

As for `C=CCc1ccc(O[C@@H]2O[C@H](CO)[C@H]3OC(=O)c4cc(O)c(O)c(O)c4-c4c(cc(O)c(O)c4O)C(=O)O[C@@H]3[C@H]2O)c(O)c1`, in the series on RAW264.7 [9], the IC50 is 4.1 µM. Besides, the Activity result with RAW264.7 [13] is recorded as “Non-Toxic”.

`COc1ccc2c(c1)c(CC(=O)O)c(C)n2C(=O)c1ccc(Cl)cc1` [INDOMETHACIN]: the inhibition result in the series on Mus musculus [22] was “Active”. For the same compound, in the series on Mus musculus [23], the inhibition in vivo at 20 mg/kg stood at 26.5%. For the same compound, the outcome in the series on Mus musculus [24] was Active.

`C=CCc1ccc(O[C@@H]2O[C@H](COC(=O)c3cc(O)c(O)c(O)c3)[C@H]3OC(=O)c4cc(O)c(O)c(O)c4-c4c(cc(O)c(O)c4O)C(=O)O[C@@H]3[C@H]2O)c(O)c1`: in the series on RAW264.7 [9], the IC50 turned out to be 3.9 µM. The Activity entry in the series on RAW264.7 [13] is on record as “Non-Toxic”.

As to `C=CCc1ccc(O[C@@H]2O[C@H](CO)[C@@H](O)[C@H](O)[C@H]2O)cc1`, the IC50 with RAW264.7 [9] was over 50 µM. Besides, in the series on RAW264.7 [13], the Activity result is recorded as “Non-Toxic”.

As to `O=c1cc(-c2ccc(O)c(O)c2)oc2cc(O)cc(O)c12` [LUTEOLIN], the IC50 with RAW264.7 [9] is 5.8 µM. Moreover, the Activity result in the series on RAW264.7 [13] was “Non-Toxic”.

For `O=c1oc2c(O)c(O)cc3c(=O)oc4c(O)c(O)cc1c4c23` [ELLAGIC ACID], in the series on RAW264.7 [9], the IC50 was over 50 µM. Also, in the series with RAW264.7 [13], the Activity entry is given as “Non-Toxic”.

Consider `C/C=C/c1ccc(O[C@@H]2O[C@H](CO)[C@H]3OC(=O)c4cc(O)c(O)c(O)c4-c4c(cc(O)c(O)c4O)C(=O)O[C@@H]3[C@H]2O)c(O)c1`, for which, in the series with RAW264.7 [9], the IC50 was found to be 2.1 µM. The Activity result with RAW264.7 [13] is given as “Non-Toxic”.

Turning to `C/C=C/c1ccc(O[C@@H]2O[C@H](CO)[C@@H](O)[C@H](O)[C@H]2O)cc1`, in the series with RAW264.7 [9], the IC50 is over 50 µM. The Activity result in the series on RAW264.7 [13] is “Non-Toxic”.

Take `C=CCc1ccc(O[C@@H]2O[C@H](CO)[C@@H](O)[C@H](O)[C@H]2O)c(O)c1`: the IC50 in the series on RAW264.7 [9] is over 50 µM. The Activity entry in the series with RAW264.7 [13] is “Non-Toxic”.

For `C/C=C/c1ccc(O[C@@H]2O[C@H](CO)[C@H]3OC(=O)c4cc(O)c(O)c(O)c4-c4c(cc(O)c(O)c4O)C(=O)O[C@@H]3[C@H]2O)cc1`, the IC50 with RAW264.7 [9] is 8.2 µM. In addition, the Activity result with RAW264.7 [13] is on record as “Non-Toxic”.
